{
  "source": "paper PMC13065080",
  "about": "“Discovery of a potent anti-Zika virus benzamide series targeting the viral protein NS4B” (PLOS Pathogens, 2026)",
  "key": {"ZIKV PLCal [1]": {"test_system": "ZIKV PLCal", "test": "CPE-based anti-ZIKV concentration-response assay (96-well)", "assay_type": "cell-based, Zika virus", "conditions": "Zika virus, 72 h; Vero 76, MOI 0.05, 3-day incubation, CellTiter-Glo; read-out: EC50-CPE ZIKV-PLCal"}, "ZIKV-RLuc": {"test_system": "ZIKV-RLuc", "test": "microbe, parasite or virus in culture", "assay_type": "cell-based, Zika virus", "conditions": "wild type ZIKV-RLuc, Vero 76, MOI 0.1, three days, read-out: EC50 ZIKV-RLuc"}, "CHIKV": {"test_system": "CHIKV", "test": "microbe, parasite or virus in culture", "assay_type": "cell-based", "conditions": "Chikungunya virus, Vero 76, read-out: EC50-CPE CHIKV"}, "ZIKV MR766": {"test_system": "ZIKV MR766", "test": "microbe, parasite or virus in culture", "assay_type": "cell-based", "conditions": "Zika virus; CPE-protection"}, "ZIKV DAK-41525-MA": {"test_system": "ZIKV DAK-41525-MA", "test": "CPE-protection assay, ZIKV DAK-41525-MA", "assay_type": "cell-based, Zika virus", "conditions": "Zika virus"}, "ZIKV Ib H30656": {"test_system": "ZIKV Ib H30656", "test": "microbe, parasite or virus in culture", "assay_type": "cell-based", "conditions": "Zika virus; CPE-protection"}, "ZIKV FLR": {"test_system": "ZIKV FLR", "test": "microbe, parasite or virus in culture", "assay_type": "cell-based", "conditions": "Zika virus; CPE-protection"}, "ZIKV PRVABC59": {"test_system": "ZIKV PRVABC59", "test": "microbe, parasite or virus in culture", "assay_type": "cell-based", "conditions": "Zika virus; CPE-protection"}, "DENV Type 4 H241": {"test_system": "DENV Type 4 H241", "test": "microbe, parasite or virus in culture", "assay_type": "cell-based", "conditions": "Dengue virus, read-out: EC50 DENV Type 4 H241"}, "YFV 17D": {"test_system": "YFV 17D", "test": "microbe, parasite or virus in culture", "assay_type": "cell-based", "conditions": "Yellow fever virus; CPE-protection"}, "JEV SA-14": {"test_system": "JEV SA-14", "test": "CPE-protection assay, JEV", "assay_type": "cell-based, Japanese encephalitis virus", "conditions": "Japanese encephalitis virus"}, "WNV NY-99": {"test_system": "WNV NY-99", "test": "CPE-protection assay, WNV", "assay_type": "cell-based, West Nile virus", "conditions": "West Nile virus"}, "ZIKV PLCal [2]": {"test_system": "ZIKV PLCal", "test": "Virus yield (titer) reduction assay in Vero 76 cells", "assay_type": "cell-based, Zika virus", "conditions": "5 µM, Vero 76, 0.05 m.o.i., two days"}, "ZIKV PLCal [3]": {"test_system": "ZIKV PLCal", "test": "Virus yield (titer) reduction assay in Huh 7.5.1 cells", "assay_type": "cell-based, Zika virus", "conditions": "1 µM"}, "ZIKV-RLuc NS4B V241L": {"test_system": "ZIKV-RLuc NS4B V241L", "assay_type": "cell-based, Zika virus"}, "ZIKV-RLuc NS4B A245T": {"test_system": "ZIKV-RLuc NS4B A245T", "assay_type": "cell-based, Zika virus"}, "ZIKV-RLuc NS4B V248G": {"test_system": "ZIKV-RLuc NS4B V248G", "assay_type": "cell-based, Zika virus"}, "ZIKV": {"test_system": "ZIKV", "test": "Combination treatment and synergy scoring, CPE-based anti-ZIKV assay", "assay_type": "cell-based", "conditions": "Zika virus; single agent, Fig 6A; read-out: EC50 as a single agent in the dose-response anti-ZIKV assay"}, "ZIKV-RLuc NS4B mutants": {"test_system": "ZIKV-RLuc NS4B mutants", "assay_type": "cell-based, Zika virus"}, "NS3-NS4B interaction": {"biological_target": "NS3-NS4B interaction (Zika virus, UniProt A0A142I5B9)", "assay_type": "cell-based"}, "[4]": {"test_system": "cleavage between NS4B and NS5", "test": "NS4B-NS5 polyprotein processing", "assay_type": "cell-based, Zika virus", "conditions": "HEK-293T"}, "IFN-α/β induction": {"test_system": "IFN-α/β induction", "test": "Interferon response measurement in ZIKV-infected Huh 7.5.1 cells", "assay_type": "cell-based", "conditions": "Huh 7.5.1, ZIKV MOI 3, 24 h.p.i.", "protocol": "Huh 7.5.1. cells were infected with ZIKV with/without test compound treatment, and the supernatants were harvested at 24 h.p.i. and tested for interferon- α/β (IFN- α/β) following the manufacturer’s protocol. HEK-Blue IFN-α/β cells (5000 cells/well) were incubated in 96-well plates with 20 µL of test samples for overnight. The following day, 20 µL of the cell supernatant from the HEK-Blue IFN-α/β cells were further incubated with 180 µL of pre-warmed Quanti-blue SEAP reagent (Invivogen) for 2 hours and the O.D. A620 was measured using a Cytation 1 (Agilent). As a positive and negative control, recombinant human IFN-α2b (InvivoGen, 30 pg/ml) and conditioned media from mock-infected Huh 7.5.1. were used."}, "ZIKV viral E protein": {"test_system": "ZIKV viral E protein", "test": "Viral E protein expression by fluorescence microscopy (4G2 antibody)", "assay_type": "cell-based, Zika virus", "conditions": "ZIKV-infected Vero76, 2 days post infection"}, "Vero76": {"test_system": "Vero76", "conditions": "African green monkey"}, "in vitro": {"test": "in vitro", "conditions": "African green monkey, CC50 Vero76"}},
  "note": "Read-outs that look alike come from different tables or passages of the source.",
  "data": [
    {"smiles": "CC(C)(C)c1ccc(C(=O)NC2CCCC2)cc1", "note": "[MWAC-3475]", "values": [
      {"measurement": "EC50", "setting": "ZIKV PLCal [1]", "result": "0.63 ± 0.65", "unit": "µM"},
      {"measurement": "EC50", "setting": "ZIKV-RLuc; Zika virus, Vero 76, 72 h", "result": 0.39, "unit": "µM"},
      {"measurement": "EC50", "setting": "ZIKV-RLuc", "result": "0.34 ± 0.28", "unit": "µM"},
      {"measurement": "EC50", "setting": "CHIKV", "result": "> 50", "unit": "µM"},
      {"measurement": "EC50", "setting": "ZIKV MR766", "result": "5.93 ± 1.26", "unit": "µM"},
      {"measurement": "EC50", "setting": "ZIKV DAK-41525-MA", "result": "1.54 ± 0.27", "unit": "µM"},
      {"measurement": "EC50", "setting": "ZIKV Ib H30656", "result": "1.01 ± 0.21", "unit": "µM"},
      {"measurement": "EC50", "setting": "ZIKV FLR", "result": "1.13 ± 0.11", "unit": "µM"},
      {"measurement": "EC50", "setting": "ZIKV PRVABC59", "result": "0.91 ± 0.2", "unit": "µM"},
      {"measurement": "EC50", "setting": "DENV Type 4 H241", "result": "> 50", "unit": "µM"},
      {"measurement": "EC50", "setting": "YFV 17D", "result": "> 50", "unit": "µM"},
      {"measurement": "EC50", "setting": "JEV SA-14", "result": "> 50", "unit": "µM"},
      {"measurement": "EC50", "setting": "WNV NY-99", "result": "> 50", "unit": "µM"},
      {"measurement": "reduction in progeny virus titers", "setting": "ZIKV PLCal [2]", "result": "> 1000", "unit": "fold"},
      {"measurement": "VYR: Virus Yield reduction (Log 10)", "setting": "ZIKV PLCal [3]", "result": "-0.36 ± 0.07", "unit": "Log 10"},
      {"measurement": "EC50", "setting": "ZIKV-RLuc NS4B V241L", "result": 21.4, "unit": "µM"},
      {"measurement": "Fold-increase / fold-change of EC50, NS4B V241L vs wild type", "setting": "ZIKV-RLuc NS4B V241L", "result": 55.24},
      {"measurement": "EC50", "setting": "ZIKV-RLuc NS4B A245T", "result": 2.29, "unit": "µM"},
      {"measurement": "Fold-increase / fold-change of EC50, NS4B A245T vs wild type", "setting": "ZIKV-RLuc NS4B A245T", "result": 5.91},
      {"measurement": "EC50", "setting": "ZIKV-RLuc NS4B V248G", "result": 5.12, "unit": "µM"},
      {"measurement": "Fold-increase / fold-change of EC50, NS4B V248G vs wild type", "setting": "ZIKV-RLuc NS4B V248G", "result": 13.20},
      {"measurement": "EC50", "setting": "ZIKV", "result": 0.616, "unit": "µM"},
      {"measurement": "fold decrease in potency by NS4B mutations", "setting": "ZIKV-RLuc NS4B mutants", "result": "6- to 55 fold"},
      {"measurement": "disruption of NS3-NS4B interaction", "setting": "NS3-NS4B interaction", "result": "did not inhibit either of these steps"},
      {"measurement": "effect on cleavage between NS4B and NS5", "setting": "[4]", "result": "no such effect was detected"},
      {"measurement": "induction of interferon in the infected cells", "setting": "IFN-α/β induction", "result": "did not inhibit either of these steps"},
      {"measurement": "intensity and abundance of viral E protein (4G2 antibody)", "setting": "ZIKV viral E protein", "result": "decreased in a concentration-dependent manner"},
      {"measurement": "CC50", "setting": "Vero76", "result": "28.1 ± 6.5", "unit": "µM"},
      {"measurement": "CC50", "setting": "in vitro", "result": 28, "unit": "µM"}
    ]}
  ]
}
